Legend:
Assay in all cases: Test B pre-/postemergence plant response
Format in all cases: in vivo
Settings in all cases: Postemergence
[1] = test system: bermudagrass (Cynodon dactylon)
In short: (§1)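 Each species received compound formulated in non-phytotoxic solvent with surfactant, either at planting into a loam and sand blend or as a foliar spray once plants reached 2 to 18 cm in peat-based medium. Plants stayed in the greenhouse 13 to 15 days before visual evaluation against controls, scored 0 (no effect) to 100 (complete control).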

[2] = test system: velvetleaf (Abutilon theophrasti)
In short: as §1

[3] = test system: kochia (Kochia scoparia)
In short: as §1

[4] = test system: woolly cupgrass (Eriochloa villosa)
In short: as §1

[5] = test system: morningglory (Ipomoea coccinea)
In short: as §1

[6] = test system: yellow nutsedge (Cyperus esculentus)
In short: as §1

[7] = test system: large crabgrass (Digitaria sanguinalis)
In short: as §1

[8] = test system: soybean (Glycine max)
In short: as §1

[9] = test system: cocklebur (Xanthium strumarium)
In short: as §1

[10] = test system: downy bromegrass (Bromus tectorum)
In short: as §1

[11] = test system: Italian ryegrass (Lolium multiflorum)
In short: as §1

[12] = test system: wheat (Triticum aestivum)
In short: as §1

[13] = 31 g ai/ha, 0 to 100 scale (0 no effect, 100 complete control)
[14] = 62 g ai/ha, scale 0 to 100 (0 no effect, 100 complete control)
[15] = 125 g ai/ha, scale 0 (no effect) to 100 (complete control), 13 to 15 days
[16] = 250 g ai/ha, scale 0 to 100 (0 no effect, 100 complete control), 13 to 15 days

Structure (SMILES): CCn1c(-c2ccccc2)ncc(C(=O)C2=C(O)C3CCC(C3)C2=O)c1=O (centres unmarked) [Compound 239]
- Plant response rating, Bermudagrass [1, 13]: 95
- Plant response rating, Bermudagrass [1, 14]: 100
- Plant response rating, Bermudagrass [1, 15]: 100
- Plant response rating, Bermudagrass [1, 16]: 100
- Plant response rating, Velvetleaf [2, 13]: 100
- Plant response rating, Velvetleaf [2, 14]: 100
- Plant response rating, Velvetleaf [2, 15]: 100
- Plant response rating, Velvetleaf [2, 16]: 100
- Plant response rating, Kochia [3, 13]: 90
- Plant response rating, Kochia [3, 14]: 98
- Plant response rating, Kochia [3, 15]: 98
- Plant response rating, Kochia [3, 16]: 98
- Plant response rating, Cupgrass, Woolly [4, 13]: 75
- Plant response rating, Cupgrass, Woolly [4, 14]: 95
- Plant response rating, Cupgrass, Woolly [4, 15]: 95
- Plant response rating, Cupgrass, Woolly [4, 16]: 95
- Plant response rating, Morningglory [5, 13]: 95
- Plant response rating, Morningglory [5, 15]: 100
- Plant response rating, Morningglory [5, 16]: 100
- Plant response rating, Nutsedge, Yellow [6, 13]: 30
- Plant response rating, Nutsedge, Yellow [6, 14]: 30
- Plant response rating, Nutsedge, Yellow [6, 15]: 65
- Plant response rating, Nutsedge, Yellow [6, 16]: 70
- Plant response rating, Crabgrass, Large [7, 13]: 75
- Plant response rating, Crabgrass, Large [7, 14]: 90
- Plant response rating, Crabgrass, Large [7, 15]: 95
- Plant response rating, Crabgrass, Large [7, 16]: 98
- Plant response rating, Soybean [8, 13]: 70
- Plant response rating, Soybean [8, 14]: 95
- Plant response rating, Soybean [8, 15]: 98
- Plant response rating, Soybean [8, 16]: 98
- Plant response rating, Cocklebur [9, 13]: 90
- Plant response rating, Cocklebur [9, 14]: 100
- Plant response rating, Cocklebur [9, 15]: 100
- Plant response rating, Cocklebur [9, 16]: 100
- Plant response rating, Bromegrass, Downy [10, 13]: 0
- Plant response rating, Bromegrass, Downy [10, 14]: 5
- Plant response rating, Bromegrass, Downy [10, 15]: 5
- Plant response rating, Bromegrass, Downy [10, 16]: 10
- Plant response rating, Ryegrass, Italian [11, 13]: 0
- Plant response rating, Ryegrass, Italian [11, 14]: 0
- Plant response rating, Ryegrass, Italian [11, 15]: 0
- Plant response rating, Ryegrass, Italian [11, 16]: 0
- Plant response rating, Wheat [12, 13]: 0
- Plant response rating, Wheat [12, 14]: 0
- Plant response rating, Wheat [12, 15]: 5
- Plant response rating, Wheat [12, 16]: 30
